Source: BindingDB's records for doi:10.1016/j.chembiol.2016.06.017 (Universitätsklinikum Frankfurt, 2016)

Biological target: T1, 3-phosphoinositide-dependent protein kinase 1 [50-359] (Homo sapiens, UniProt O15530)
T1 construct: 50-359
T1 sequence (O15530 whole entry): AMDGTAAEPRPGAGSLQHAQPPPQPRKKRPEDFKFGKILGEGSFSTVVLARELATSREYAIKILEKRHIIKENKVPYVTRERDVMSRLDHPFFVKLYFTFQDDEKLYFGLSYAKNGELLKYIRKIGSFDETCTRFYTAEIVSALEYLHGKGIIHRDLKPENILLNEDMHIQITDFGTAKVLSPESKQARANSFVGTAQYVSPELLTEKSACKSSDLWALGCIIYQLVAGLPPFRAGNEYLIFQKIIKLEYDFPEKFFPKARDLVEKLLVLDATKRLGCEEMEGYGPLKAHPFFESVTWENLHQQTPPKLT
Assay: Isothermal titration calorimetry
Settings: pH 7.4
Procedure: For the titrations of PDK1 with adenosine, the protein and the compound were prepared in 50 mMTris-HCl (pH 7.4), 200 mM NaCl, 1 mM DTT and 1% v/v DMSO. For the titration of PDK1 with PS653 theprotein and the compound were prepared in 50 mM Tris-HCl (pH 7.4), 200 mM NaCl, 1 mM DTT and 5% v/vDMSO. […] The titrationof PDK1 with adenosine was performed at 25 C, and the titration of PDK1 with PS653 was made at 37 C. Rawcalorimetric data were corrected for heats of dilution. Binding stoichiometries, enthalpy values and Kd valueswere determined by fitting corrected data to

With O=C1c2ccccc2-c2n[nH]c3cccc1c23 [SP-600125] the Kd was 1250 nM.
